Among the data in patent publication US20240018145A1, “[…]-DEPENDENT EN[…] TREATING OR […]” (priority 2020, published 2024) are EC50 values, retold here.

For one assay, the system named is FLU A (PR/8/34). Put plainly: Flu A Neuraminidase Antiviral Assay. Type of assay: cell-based.
Details: not given
On to `CN1C(=O)c2c(O)c(=O)ccn2N2C(c3ccccc3)C(Cc3ccccc3)CCC12` (single isomer, unassigned) [Compound 117B, 2-benzyl-7-hydroxy-5-methyl-1-phenyl-1,2,3,4,4a,5-hexahydrodipyrido[1,2-b:2′,1′-f][1,2,4]triazine-6,8-dione], for which the concentration for a half-maximal effect (EC50) (commonly the concentration at which the effect is half-maximal) was found to be 113 nM.
Turning to `CC1CC(c2ccccc2)N2C(C1)N(C)C(=O)c1c(O)c(=O)ccn12` (single isomer, unassigned) [Compound 6A, 7-hydroxy-3,5-dimethyl-1-phenyl-1,2,3,4,4a,5-hexahydrodipyrido[1,2-b:2′,1′-f][1,2,4]triazine-6,8-dione], it took 372 nM to reach a half-maximal effect (EC50). This EC50 lies about 3.3-fold higher than the previous one.
In the case of `CN1C(=O)c2c(O)c(=O)ccn2N2C1CCC1(CCCC(F)(F)C1)C2c1ccccc1` (single isomer, unassigned) [Compound 75C, 3,3-difluoro-7′-hydroxy-5′-methyl-1′-phenyl-3′,4′,4a′,5′-tetrahydro-1′H-spiro[cyclohexane-1,2′-dipyrido[1,2-b:2′,1′-f][1,2,4]triazine]-6′,8′-dione], the half-maximal effective concentration (EC50) is 140 nM.
The same measure, in the same setting: the same measure for `Cc1cc(=O)c(O)c2n1N1C(c3ccccc3)C(CC(F)(F)F)CCC1N(C)C2=O` (single isomer, unassigned) [Compound 132B, 7-hydroxy-5,10-dimethyl-1-phenyl-2-(2,2,2-trifluoroethyl)-1,2,3,4,4a,5-hexahydrodipyrido[1,2-b:2′,1′-f][1,2,4]triazine-6,8-dione]: 21.3 nM; for `O=C1c2c(O)c(=O)ccn2N2C(c3ccccc3)CCCC2N1CC1CC1` (single isomer, unassigned) [Compound 56D, 5-(cyclopropylmethyl)-7-hydroxy-1-phenyl-1,2,3,4,4a,5-hexahydrodipyrido[1,2-b:2′,1′-f][1,2,4]triazine-6,8-dione]: 37.7 nM.
Still for that read-out and setting: the same measure for `CN1C(=O)c2c(O)c(=O)ccn2N2C1CCCC21CCCc2ccccc21` (single isomer, unassigned) [Compound 32B, 7-hydroxy-5-methyl-3,3′,4,4a,4′,5-hexahydro-2H,2′H-spiro[dipyrido[1,2-b:2′,1′-f][1,2,4]triazine-1,1′-naphthalene]-6,8-dione]: 156 nM; for `CCCC1CCC2C(n3ccc(=O)c(O)c3C(=O)N2C)C1(O)c1ccccc1` (single isomer, unassigned) [Compound 166B, 1,7-dihydroxy-5-methyl-1-phenyl-2-propyl-1,3,4,4a,5,11a-hexahydro-2H-pyrido[1,2-a]quinoxaline-6,8-dione]: above 8100 nM.
On the same count and under the same terms, the same measure for `CN1C(=O)c2c(O)c(=O)ccn2N2C1CCC1(CCCC(F)(F)C1)C2c1ccccc1` (single isomer, unassigned) [Compound 75B, 3,3-difluoro-7′-hydroxy-5′-methyl-1′-phenyl-3′,4′,4a′,5′-tetrahydro-1′H-spiro[cyclohexane-1,2′-dipyrido[1,2-b:2′,1′-f][1,2,4]triazine]-6′,8′-dione]: 8 nM.
The molecule `CN1C(=O)c2c(O)c(=O)ccn2N2C(c3ccccc3Br)C(CC(F)(F)F)CCC12` (single isomer, unassigned) [Compound 89B, 1-(2-bromophenyl)-7-hydroxy-5-methyl-2-(2,2,2-trifluoroethyl)-1,2,3,4,4a,5-hexahydrodipyrido[1,2-b:2′,1′-f][1,2,4]triazine-6,8-dione] displayed an EC50 of 2.4 nM.
`CN1C(=O)c2c(O)c(=O)ccn2N2C(c3cccc(OC(F)F)c3)CCCC12` (single isomer, unassigned) [Compound 12B, 1-(3-(difluoromethoxy)phenyl)-7-hydroxy-5-methyl-1,2,3,4,4a,5-hexahydrodipyrido[1,2-b:2′,1′-f][1,2,4]triazine-6,8-dione] showed a concentration for a half-maximal effect (EC50) above 8100 nM.
Same read-out and setting: the same measure for `CN1C(=O)c2c(O)c(=O)ccn2N2C(c3ccccc3)C(Cc3ccccc3)CCC12` (single isomer, unassigned) [Compound 117A, 2-benzyl-7-hydroxy-5-methyl-1-phenyl-1,2,3,4,4a,5-hexahydrodipyrido[1,2-b:2′,1′-f][1,2,4]triazine-6,8-dione]: 3530 nM; for `CCCC1CCC2N(C)C(=O)c3c(O)c(=O)ccn3N2C1c1ccccc1Cl` (stereo not shown) [Compound 65B, 1-(2-chlorophenyl)-7-hydroxy-5-methyl-2-propyl-1,2,3,4,4a,5-hexahydrodipyrido[1,2-b:2′,1′-f][1,2,4]triazine-6,8-dione]: 2.8 nM; for `CN1C(=O)c2c(O)c(=O)ccn2N2C1CCCC2(C)c1ccccc1F` (single isomer, unassigned) [Compound 24A, 1-(2-fluorophenyl)-7-hydroxy-1,5-dimethyl-1,2,3,4,4a,5-hexahydrodipyrido[1,2-b:2′,1′-f][1,2,4]triazine-6,8-dione]: 2.1 nM.
Still for that read-out and setting: the figure for `CN1C(=O)c2c(O)c(=O)ccn2N2C1CCCC2(C)c1ccccn1` (single isomer, unassigned) [Compound 30A, 7-hydroxy-1,5-dimethyl-1-(pyridin-2-yl)-1,2,3,4,4a,5-hexahydrodipyrido[1,2-b:2′,1′-f][1,2,4]triazine-6,8-dione] is 16.6 nM; for `CN1C(=O)c2c(O)c(=O)ccn2N2C(c3cc(F)ccc3OC(F)F)CCCC12` (single isomer, unassigned) [Compound 17A, 1-(2-(difluoromethoxy)-5-fluorophenyl)-7-hydroxy-5-methyl-1,2,3,4,4a,5-hexahydrodipyrido[1,2-b:2′,1′-f][1,2,4]triazine-6,8-dione] it is 3510 nM; for `CC1CCC2N(C)C(=O)c3c(O)c(=O)ccn3N2C1(C)c1ccccc1` (single isomer, unassigned) [Compound 29B, 7-hydroxy-1,2,5-trimethyl-1-phenyl-1,2,3,4,4a,5-hexahydrodipyrido[1,2-b:2′,1′-f][1,2,4]triazine-6,8-dione] it is 286 nM.
On to `CCN1C(=O)c2c(O)c(=O)ccn2N2C1CCCC2(C)c1ccccc1` (single isomer, unassigned) [Compound 36A, 5-ethyl-7-hydroxy-1-methyl-1-phenyl-1,2,3,4,4a,5-hexahydrodipyrido[1,2-b:2′,1′-f][1,2,4]triazine-6,8-dione], for which the response was half-maximal at 3.2 nM (EC50).
The same measure, in the same setting: the same measure for `CN1C(=O)c2c(O)c(=O)ccn2N2C1CCC(C)(C)C2(C)c1ccccc1` (single isomer, unassigned) [Compound 35B, 7-hydroxy-1,2,2,5-tetramethyl-1-phenyl-1,2,3,4,4a,5-hexahydrodipyrido[1,2-b:2′,1′-f][1,2,4]triazine-6,8-dione]: above 8100 nM; for `CN1C(=O)c2c(O)c(=O)ccn2N2C1CCC1(CCC(F)(F)CC1)C2c1ccccc1` (single isomer, unassigned) [Compound 72A, 4,4-difluoro-7′-hydroxy-5′-methyl-1′-phenyl-3′,4′,4a′,5′-tetrahydro-1′H-spiro[cyclohexane-1,2′-dipyrido[1,2-b:2′,1′-f][1,2,4]triazine]-6′,8′-dione]: above 810 nM; for `CN1C(=O)c2c(O)c(=O)ccn2N2C(c3ccccc3)C(CC3CC3(F)F)CCC12` (single isomer, unassigned) [Compound 114C, 2-((2,2-difluorocyclopropyl)methyl)-7-hydroxy-5-methyl-1-phenyl-1,2,3,4,4a,5-hexahydrodipyrido[1,2-b:2′,1′-f][1,2,4]triazine-6,8-dione]: 5.3 nM.
On the same count and under the same terms, the same measure for `Cc1ccccc1C1C(CC(F)(F)F)CCC2N(C)C(=O)c3c(O)c(=O)ccn3N12` (single isomer, unassigned) [Compound 120A, 7-hydroxy-5-methyl-1-(o-tolyl)-2-(2,2,2-trifluoroethyl)-1,2,3,4,4a,5-hexahydrodipyrido[1,2-b:2′,1′-f][1,2,4]triazine-6,8-dione]: 2720 nM.
On the same count and under the same terms, the figure for `CCCC1CCC2N(C)C(=O)c3c(O)c(=O)ccn3N2C1c1ccccc1C` (single isomer, unassigned) [Compound 92B, 7-hydroxy-5-methyl-2-propyl-1-(o-tolyl)-1,2,3,4,4a,5-hexahydrodipyrido[1,2-b:2′,1′-f][1,2,4]triazine-6,8-dione] is 3.3 nM; for `CN1C(=O)c2c(O)c(=O)ccn2N2C(c3ccccc3)C(O)CCC12` (stereo not shown) [Compound 135B, 2,7-dihydroxy-5-methyl-1-phenyl-1,2,3,4,4a,5-hexahydrodipyrido[1,2-b:2′,1′-f][1,2,4]triazine-6,8-dione] it is above 8100 nM.
As to `CN1C(=O)c2c(O)c(=O)ccn2N2C(c3ccccc3)C(CCC3CC3)CCC12` (single isomer, unassigned) [Compound 115D, 2-(2-cyclopropylethyl)-7-hydroxy-5-methyl-1-phenyl-1,2,3,4,4a,5-hexahydrodipyrido[1,2-b:2′,1′-f][1,2,4]triazine-6,8-dione], the EC50 is 6.9 nM. This counts as single-digit nanomolar.
Same read-out and setting: the figure for `Cc1cccc(F)c1C1C(CC(F)(F)F)CCC2N(C)C(=O)c3c(O)c(=O)ccn3N12` (single isomer, unassigned) [Compound 77B, 1-(2-fluoro-6-methylphenyl)-7-hydroxy-5-methyl-2-(2,2,2-trifluoroethyl)-1,2,3,4,4a,5-hexahydrodipyrido[1,2-b:2′,1′-f][1,2,4]triazine-6,8-dione] is 3.2 nM.
Still for that read-out and setting: the figure for `CCCC1CCC2N(C)C(=O)c3c(O)c(=O)ccn3N2C1(C)c1ccccc1` (single isomer, unassigned) [Compound 33D, 7-hydroxy-1,5-dimethyl-1-phenyl-2-propyl-1,2,3,4,4a,5-hexahydrodipyrido[1,2-b:2′,1′-f][1,2,4]triazine-6,8-dione] is 2.3 nM.

Staying with this assay, now noted: MDCK, 48 h.
For `CN1C(=O)c2c(O)c(=O)ccn2N2C(c3ccccc3)C3CCCC(C3)C12` (single isomer, unassigned) [Compound 11A, 4-hydroxy-6-methyl-12-phenyl-6,6a,7,8,9,10,11,12-octahydro-7,11-methanopyrido[1′,2′:1,6][1,2,4]triazino[2,3-a]azocine-3,5-dione], the 50% effective concentration (EC50) was above 8100 nM.
As for `CC(C)CC1CC(c2ccccc2)N2C(C1)N(C)C(=O)c1c(O)c(=O)ccn12` (single isomer, unassigned) [Compound 130A, 7-hydroxy-3-isobutyl-5-methyl-1-phenyl-1,2,3,4,4a,5-hexahydrodipyrido[1,2-b:2′,1′-f][1,2,4]triazine-6,8-dione], the concentration for a half-maximal effect (EC50) is above 8100 nM.
